Source: patent US12527773B2, “Flavi-block: a pan-flavivirus inhibitor” (Baden-Württemberg Stiftung GmbH, priority 2020, dated 2026)
Entries after “also recorded” stand apart in the source; their conditions may differ. Where two headings read alike, the source gives them in different places.

Legend:
HCV core protein = HCV core protein (Hepatitis C virus genotype 1a, UniProt P27958); assay: Interaction with and crosslinking of HCV core protein (Western blot); conditions: purified core protein
RSV [1] = assay: IC50 in established virological assays (Table 1), RSV; type: cell-based; conditions: human respiratory syncytial virus
Method: (§1) In summary, a set of C10 derivatives (FIG. 12) was designed, synthesized and tested against HCV (which is considered as an established system to monitor drug effects against Flaviviridae) as well as DENV for comprehensive structure-activity relationship (SAR) analysis and target validation. IC50 and CC50 values for compound C10 were determined in established virological assays (Table 1). […] Further, said experiments underline the specificity of compound C10 for flaviviruses.

RSV [2] = assay: Plaque assay, RSV infection (A549 cells lysed at 22 h); type: cell-based; conditions: human respiratory syncytial virus
Method: (§2) Vero and BHK-21 cells were maintained in DMEM media supplemented with 10% heat-inactivated FBS at 37° C. in a humidified incubator supplemented with 5% CO2; A549 cells were maintained in F-12K medium supplemented with 10% heat-inactivated Fetal Bovine Serum (FBS), 2 mM L-glutamine, 50 U/I penicillin, 0.05 mg/l streptomycin. DENV-1-4 strains, cell culture conditions and Gen-Bank accession numbers, as well as details of RSV strains and culture are known in the art. […] Viral titer was subsequently determined by plaque assay (see below).
Vero cells were seeded into 24-well plates at a density of 2×10^5 cells/well and grown overnight in culture medium at 37° C. with 5% CO2 prior to infection with RSV, KUNV, ZIKV as indicated. BHK-21 cells were used for DENV1-4. The virus inoculum was removed and replaced with semisolid overlays of 0.8% aquacide II (Calbiochem) in DMEM+2% FBS, and the mixture was incubated at 37° C. with 5% CO2. After 3-5 days, the cells were fixed with neutral buffered formalin (Sigma) for 3 h at room temperature, rinsed with tap water, and stained with 1% crystal violet for 10 min. The stain was removed by rinsing the cells with tap water, and the viral plaques were counted visually. Dose-response curves were plotted from the plaque number versus the log of the concentration of the test compounds. […]

ZIKA = assay: IC50 in established virological assays (Table 1), ZIKA; type: cell-based; conditions: Zika virus
Huh7.5 cells = assay: Cytotoxicity in Huh7.5 cells (Cell Titer Glo, ATP); type: cell-based; conditions: Huh7.5, 24 h
Method: Cell viability was measured via the presence of ATP using the Promega Cell Titer Glo kit according to the manufacturer's instructions. Luminescence was detected using the Cytation3 by Biotek. […] (B) The same set of data as shown in FIG. 4A was plotted in a line graph. […] (D) As for FIG. 4A, Huh7.5 cells (1.0×10^4 cells/well) were seeded and incubated with C10 at the indicated concentrations for the indicated time points before measurement of viability using the Promega Cell Titer Glo kit.
Cell viability was measured by the presence of ATP using the Promega Cell Titer Glo Kit according to the manufacturer's instructions. Luminescence was detected using a Biotek Cytation3.
In the analysis of the data, all values were normalized against the DMSO control and presented in terms of percentage viability. The result is shown in the bar chart of FIG. 4A and the line chart of FIG. 4B; n≥6 with SEM.
For this purpose, Huh7.5 cells were seeded, treated and analyzed as described above. The CC50 values for C10, D1, D2, and D3 were calculated using GraphPad Prism6 software with a non-linear regression curve fitting algorithm, as shown in FIG. 4B. It should be noted that the tested compounds precipitate at concentrations above 160 μM in aqueous solutions. For this reason, higher concentrations cannot be tested.

HBV = assay: IC50 in established virological assays (Table 1), HBV; type: cell-based, Hepatits B Virus
Method: as §1

DENV3 = assay: Plaque assay of released virus, DENV3-infected Vero cells; type: cell-based; conditions: Dengue virus
Method: (§3) Vero cells were infected with DENV1-4 at an MOI of 1 for 2 h (post infection, p.i., (A)), after which virus was removed, and fresh maintenance medium containing 2% FCS together with the indicated concentration of C10 added. For co-treat condition (c.t., (B)), Vero cells were infected with DENV1-4 at an MOI of 1 in the presence of C10 for 2 h, followed by removal of the virus/C10 inoculums, and addition of fresh 2% fetal calf serum maintenance medium. […] Results represent the mean ±SD for duplicate wells from a single assay, representative of 2 independent experiments (cf. Tables 2A and 2B, infra, for pooled data).
as §2, with “streptomycin.” for “streptomycin. DENV-1-4 strains, cell culture conditions and Gen-Bank accession numbers, as well as details of RSV strains and culture are known in the art.”
Vero cells were seeded into 24-well plates at a density of 2×10^5 cells/well and grown overnight in culture medium at 37° C. with 5% CO2 prior to infection with RSV, KUNV, ZIKV as indicated. […] The stain was removed by rinsing the cells with tap water, and the viral plaques were counted visually. […]

DENV2 = assay: RT-qPCR analysis of virus genomes, DENV2; type: cell-based; conditions: Dengue virus
Method: as §3
Viral RNA was extracted using Isolate II RNA extraction kit (Bioline), and the absolute number of RNA copies determined by Taqman One Step RT-qPCR (Applied Biosystems) by extrapolation from a standard curve generated from in vitro—transcribed virus RNA.
It was decided to test the ability of C10 to inhibit the flaviviruses DENV1-4, KUNV and ZIKV, in addition to the paramyxovirus RSV, as a control.

HIV = assay: IC50 in established virological assays (Table 1), HIV; type: cell-based
Method: as §1

HCV core protein, sequence (P27958 1-117): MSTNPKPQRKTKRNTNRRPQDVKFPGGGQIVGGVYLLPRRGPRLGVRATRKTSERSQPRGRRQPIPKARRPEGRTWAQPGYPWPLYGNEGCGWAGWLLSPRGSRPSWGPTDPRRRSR

Question: `CCN1/C(=C\C=C\c2sc3cc(NC(C)=O)ccc3[n+]2CC)Sc2cc(NC(C)=O)ccc21.[I-]` [C10, 6-acetamido-2-((1E,3E)-3-(6-acetamido-3-ethylbenzo[d]thiazol-2(3H)-ylidene)prop-1-en-1-yl)-3-ethylbenzo[d]thiazol-3-ium iodide] was tested. Which “cross-linking / oligomerization of HCV core protein” value (HCV core protein) did it give?
Answer: leads to cross-linking of the core protein; also recorded: triggers the oligomerization of HCV core protein

Question: And the IC50 (RSV [1])?
Answer: 4.3 µM

Question: And the EC50 (RSV [2]; c.t., read-out: EC50 from plaque assays)?
Answer: 890 nM

Question: What about the EC50 (RSV [2]; co-added with virus (text, Tables 2A and 2B), read-out: EC50) of the same compound?
Answer: ~800 nM

Question: And the IC50 (ZIKA)?
Answer: 100 to 200 nM

Question: What about the “concentration up to which not toxic” value (Huh7.5 cells) of the same compound?
Answer: up to 40 μM

Question: And the “activity against Hepatits B Virus (HBV)” value (HBV)?
Answer: inactive or has only minor activity

Question: And the IC50 (HBV; Hepatitis B virus, HBV)?
Answer: > 10 µM

Question: And the EC50 (DENV3; read-out: EC50 from plaque assays, DENV3, c.t.)?
Answer: 10 nM

Question: And the EC50 (DENV3; read-out: EC50 from plaque assays, DENV3, p.i.)?
Answer: 600 nM

Question: And the EC50 (DENV2; DENV2, read-out: EC50 from RT-qPCR analysis, DENV2, c.t.)?
Answer: 200 nM

Question: What about the EC50 (DENV2; DENV2, read-out: EC50 from RT-qPCR analysis, DENV2, p.i.) of the same compound?
Answer: 810 ± 480 nM

Question: And the “activity against HIV” value (HIV)?
Answer: does not act on HIV

Question: What about the IC50 (HIV; Human immunodeficiency virus 1, HIV) of the same compound?
Answer: > 100 µM
